ChEMBL document CHEMBL3792294, “Efficient synthesis of new 2,3-dihydrooxazole-spirooxindoles hybrids as antimicrobial agents” (2016)
Values after ≈ are worked out from the molar mass of the structure shown. Active and inactive are the calls of the source. The calls are words filed in the database; no cut-off is given here.

Tests used:
Format in all cases: functional
Pyricularia oryzae = experiment: Antifungal activity against Pyricularia oryzae after 48 hrs by agar diffusion method
[1] = test system: Pseudoperonospora cubensis; experiment: Antifungal activity against Pseudoperonospora cubensis after 72 hrs by agar diffusion method
Podosphaera fuliginea = experiment: Antifungal activity against Sphaerotheca fuliginea after 72 hrs by agar diffusion method
Phytophthora infestans = experiment: Antifungal activity against Phytophthora infestans after 72 hrs by agar diffusion method
Bacillus subtilis = experiment: Antibacterial activity against Bacillus subtilis after 24 hrs by spectrophotometry
Enterobacter = experiment: Antibacterial activity against Enterobacter after 24 hrs by spectrophotometry
Klebsiella pneumoniae = experiment: Antibacterial activity against Klebsiella pneumoniae after 24 hrs by spectrophotometry

Compound	MIC (Pyricularia oryzae)	MIC [1]	MIC (Podosphaera fuliginea)	MIC (Phytophthora infestans)	MBC (Bacillus subtilis)	MIC (Bacillus subtilis)	MBC (Enterobacter) [µg/mL]	MIC (Enterobacter) [µg/mL]	MBC (Klebsiella pneumoniae)	MIC (Klebsiella pneumoniae)
NYSTATIN	20 µg/mL	18 µg/mL	18 µg/mL	18 µg/mL						
Cc1ccccc1OCC(=O)NN1C(c2ccccc2)=C(c2ccccc2)OC12C(=O)Nc1ccccc12 (stereo not given)	17 µg/mL (≈ 33.8 µM)	8 µg/mL (≈ 15.9 µM)	12 µg/mL (≈ 23.8 µM)	18 µg/mL (≈ 35.7 µM)	inactive	inactive	50 (≈ 99.3 µM)	30 (≈ 59.6 µM)	inactive	inactive
Cc1ccc(OCC(=O)NN2C(c3ccccc3)=C(c3ccccc3)OC23C(=O)Nc2ccccc23)cc1 (stereo not given)	8 µg/mL (≈ 15.9 µM)	12 µg/mL (≈ 23.8 µM)	12 µg/mL (≈ 23.8 µM)	14 µg/mL (≈ 27.8 µM)	inactive	inactive	100 (≈ 199 µM)	50 (≈ 99.3 µM)	inactive	inactive
O=C(NN1C(c2ccccc2)=C(c2ccccc2)OC12C(=O)Nc1ccccc12)c1ccc([N+](=O)[O-])cc1 (stereo not given)	16 µg/mL (≈ 31.7 µM)	18 µg/mL (≈ 35.7 µM)	12 µg/mL (≈ 23.8 µM)	12 µg/mL (≈ 23.8 µM)	50 µg/mL (≈ 99.1 µM)	30 µg/mL (≈ 59.5 µM)	50 (≈ 99.1 µM)	30 (≈ 59.5 µM)	inactive	inactive
O=C(COc1ccccc1)NN1C(c2ccccc2)=C(c2ccccc2)OC12C(=O)Nc1ccccc12 (stereo not given)	15 µg/mL (≈ 30.6 µM)	12 µg/mL (≈ 24.5 µM)	16 µg/mL (≈ 32.7 µM)	14 µg/mL (≈ 28.6 µM)	100 µg/mL (≈ 204 µM)	50 µg/mL (≈ 102 µM)	100 (≈ 204 µM)	40 (≈ 81.7 µM)	inactive	inactive
O=C(NN1C(c2ccccc2)=C(c2ccccc2)OC12C(=O)Nc1ccccc12)c1ccccc1O (stereo not given)	16 µg/mL (≈ 33.6 µM)	12 µg/mL (≈ 25.2 µM)	12 µg/mL (≈ 25.2 µM)	14 µg/mL (≈ 29.4 µM)	100 µg/mL (≈ 210 µM)	70 µg/mL (≈ 147 µM)	50 (≈ 105 µM)	40 (≈ 84.1 µM)	inactive	inactive
O=C(COc1ccc(Cl)cc1Cl)NN1C(c2ccccc2)=C(c2ccccc2)OC12C(=O)Nc1ccccc12 (stereo not given)	inactive	inactive	14 µg/mL (≈ 25.1 µM)	inactive	50 µg/mL (≈ 89.5 µM)	25 µg/mL (≈ 44.8 µM)	100 (≈ 179 µM)	40 (≈ 71.6 µM)	50 µg/mL (≈ 89.5 µM)	25 µg/mL (≈ 44.8 µM)
O=C(NN1C(c2ccccc2)=C(c2ccccc2)OC12C(=O)Nc1ccccc12)c1ccc(Cl)cc1 (stereo not given)	14 µg/mL (≈ 28.3 µM)	12 µg/mL (≈ 24.3 µM)	12 µg/mL (≈ 24.3 µM)	14 µg/mL (≈ 28.3 µM)	100 µg/mL (≈ 202 µM)	50 µg/mL (≈ 101 µM)	50 (≈ 101 µM)	30 (≈ 60.7 µM)	100 µg/mL (≈ 202 µM)	50 µg/mL (≈ 101 µM)
Cc1cccc(OCC(=O)NN2C(c3ccccc3)=C(c3ccccc3)OC23C(=O)Nc2ccccc23)c1 (stereo not given)	20 µg/mL (≈ 39.7 µM)	inactive	inactive	12 µg/mL (≈ 23.8 µM)	inactive	inactive	100 (≈ 199 µM)	40 (≈ 79.4 µM)	inactive	inactive
O=C(O)c1cn(C2CC2)c2cc(N3CCNCC3)c(F)cc2c1=O [CIPROFLOXACIN]					12.5 µg/mL (≈ 37.7 µM)	6.25 µg/mL (≈ 18.9 µM)	25 (≈ 75.4 µM)	10.2 (≈ 30.9 µM)	25 µg/mL (≈ 75.4 µM)	6.25 µg/mL (≈ 18.9 µM)
COc1ccc(C(=O)NN2C(c3ccccc3)=C(c3ccccc3)OC23C(=O)Nc2ccccc23)cc1 (stereo not given)	12 µg/mL (≈ 24.5 µM)	14 µg/mL (≈ 28.6 µM)	8 µg/mL (≈ 16.3 µM)	14 µg/mL (≈ 28.6 µM)	200 µg/mL (≈ 409 µM)	100 µg/mL (≈ 204 µM)	100 (≈ 204 µM)	50 (≈ 102 µM)	inactive	inactive
